Test results: ChEMBL document CHEMBL5665443, “Enzyme Inhibitor Single Concentration assay results for EUbOPEN Chemogenomics Library” (2024)

Assays:
[1] = target: Endonuclease 8-like 1 (Homo sapiens) (UniProt Q96FI4); details: Compound Concentration 10.0 uM, Hit No;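 also: fluorescence at 594 nm from quenched duplex DNA oligonucleotides released by NEIL1 cleavage and strand separation, reported as reduction of this enzyme activity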
Description: Inhibition of NEIL1 by quantifying inhibition of NEIL1-mediated cleavage and dissociation of quenched duplex DNA oligonucleotides, measured as fluorescence at 594 nm.

[2] = target: T1, Endonuclease 8-like 2 (Homo sapiens) (UniProt Q969S2); details: Compound Concentration 10.0 uM, Hit No;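 also: fluorescence at 594 nm reports NEIL2 cutting and release of a quenched double-stranded DNA oligo substrate, reduced signal read as inhibition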
T1 sequence (whole entry): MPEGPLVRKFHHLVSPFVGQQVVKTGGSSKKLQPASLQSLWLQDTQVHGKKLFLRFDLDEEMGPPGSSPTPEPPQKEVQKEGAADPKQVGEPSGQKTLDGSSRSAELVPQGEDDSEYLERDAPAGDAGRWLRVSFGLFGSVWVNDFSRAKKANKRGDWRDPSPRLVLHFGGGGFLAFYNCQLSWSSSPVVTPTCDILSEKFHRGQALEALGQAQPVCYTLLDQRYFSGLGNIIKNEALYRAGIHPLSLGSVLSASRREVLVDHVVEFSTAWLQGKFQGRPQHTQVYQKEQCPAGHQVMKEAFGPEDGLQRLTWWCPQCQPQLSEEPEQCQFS
Description: Inhibition of NEIL2 by quantifying inhibition of NEIL2-mediated cleavage and dissociation of quenched duplex DNA oligonucleotides, measured as fluorescence at 594 nm.

[3] = target: N-glycosylase/DNA lyase (Homo sapiens) (UniProt O15527); details: Hit No;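 also: OGG1 cleavage of a quenched duplex DNA oligonucleotide, coupled to APE1 for strand incision, read as fluorescence at 594 nm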
Sequence of N-glycosylase/DNA lyase (Homo sapiens) (O15527 whole entry): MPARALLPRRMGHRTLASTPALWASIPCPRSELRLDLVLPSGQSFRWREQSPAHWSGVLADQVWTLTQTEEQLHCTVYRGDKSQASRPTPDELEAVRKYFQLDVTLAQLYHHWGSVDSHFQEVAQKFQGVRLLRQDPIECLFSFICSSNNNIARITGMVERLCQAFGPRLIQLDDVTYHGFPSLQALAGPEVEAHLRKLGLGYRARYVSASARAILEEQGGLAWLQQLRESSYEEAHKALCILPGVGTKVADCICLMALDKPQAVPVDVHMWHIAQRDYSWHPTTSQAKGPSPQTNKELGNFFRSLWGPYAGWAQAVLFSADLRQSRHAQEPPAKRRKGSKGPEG
Description: Inhibition of OGG1 by quantifying inhibition of OGG1-mediated cleavage and dissociation of quenched duplex DNA oligonucleotides, measured as fluorescence at 594 nm. To generate a functional strand incision and increase turn-over this assay is coupled to APE1.

[4] = target: G/T mismatch-specific thymine DNA glycosylase (Homo sapiens) (UniProt Q13569); details: Hit No;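 also: human TDG cleavage of quenched duplex DNA oligonucleotides coupled to APE1, strand release read as fluorescence at 594 nm, inhibition of TDG activity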
Sequence of G/T mismatch-specific thymine DNA glycosylase (Homo sapiens) (Q13569 whole entry): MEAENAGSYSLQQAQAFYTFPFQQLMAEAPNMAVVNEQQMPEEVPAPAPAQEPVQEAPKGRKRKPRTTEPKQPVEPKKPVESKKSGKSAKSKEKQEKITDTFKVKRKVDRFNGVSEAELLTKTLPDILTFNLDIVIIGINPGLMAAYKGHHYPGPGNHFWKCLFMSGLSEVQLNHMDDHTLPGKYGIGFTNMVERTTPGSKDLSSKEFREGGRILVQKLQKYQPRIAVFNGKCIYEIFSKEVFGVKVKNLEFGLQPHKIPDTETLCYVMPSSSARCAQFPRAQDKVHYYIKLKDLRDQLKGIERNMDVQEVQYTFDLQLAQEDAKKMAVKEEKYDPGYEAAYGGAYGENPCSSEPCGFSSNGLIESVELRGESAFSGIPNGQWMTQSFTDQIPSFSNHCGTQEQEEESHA
Description: Inhibition of TDG by quantifying inhibition of TDG-mediated cleavage and dissociation of quenched duplex DNA oligonucleotides, measured as fluorescence at 594 nm. To generate a functional strand incision and increase turn-over this assay is coupled to APE1.

[5] = target: DNA-3-methyladenine glycosylase (Homo sapiens) (UniProt P29372); details: Compound Concentration 10.0 uM, Hit No;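 also: enzyme assay where MPG cuts a quenched duplex DNA oligonucleotide probe, paired with APE1 for strand incision and turnover, read as fluorescence at 594 nm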
Sequence of DNA-3-methyladenine glycosylase (Homo sapiens) (P29372 whole entry): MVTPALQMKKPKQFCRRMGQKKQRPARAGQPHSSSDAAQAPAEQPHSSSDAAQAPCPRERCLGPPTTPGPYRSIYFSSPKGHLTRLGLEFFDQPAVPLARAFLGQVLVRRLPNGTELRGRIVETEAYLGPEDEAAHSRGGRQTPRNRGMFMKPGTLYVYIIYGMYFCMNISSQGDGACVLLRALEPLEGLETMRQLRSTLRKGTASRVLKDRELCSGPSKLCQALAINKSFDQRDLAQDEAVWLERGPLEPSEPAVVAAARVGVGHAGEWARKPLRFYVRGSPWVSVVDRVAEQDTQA
Description: Inhibition of MPG by quantifying inhibition of MPG-mediated cleavage and dissociation of quenched duplex DNA oligonucleotides, measured as fluorescence at 594 nm. To generate a functional strand incision and increase turn-over this assay is coupled to APE1.

[6] = target: T2, Single-strand selective monofunctional uracil DNA glycosylase (Homo sapiens) (UniProt Q53HV7); details: Hit No;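 also: enzymatic SMUG1 assay coupled with APE1, reading fluorescence at 594 nm released when a quenched double-stranded DNA oligonucleotide substrate is cleaved and separated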
T2 sequence (whole entry): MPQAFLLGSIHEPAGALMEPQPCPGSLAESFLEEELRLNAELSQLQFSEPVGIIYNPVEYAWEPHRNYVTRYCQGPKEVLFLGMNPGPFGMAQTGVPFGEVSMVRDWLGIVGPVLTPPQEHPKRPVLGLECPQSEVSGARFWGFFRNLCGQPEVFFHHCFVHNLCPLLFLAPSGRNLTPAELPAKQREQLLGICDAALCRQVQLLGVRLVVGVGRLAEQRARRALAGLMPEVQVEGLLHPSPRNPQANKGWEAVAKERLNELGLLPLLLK
Description: Inhibition of SMUG1 by quantifying inhibition of SMUG1-mediated cleavage and dissociation of quenched duplex DNA oligonucleotides, measured as fluorescence at 594 nm. To generate a functional strand incision and increase turn-over this assay is coupled to APE1.

[7] = target: Uracil-DNA glycosylase (Homo sapiens) (UniProt P13051); details: Hit No;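 also: UNG excision on a quenched double-stranded DNA oligo probe, with APE1 added for strand incision and turnover, read as fluorescence at 594 nm as strands separate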
Sequence of Uracil-DNA glycosylase (Homo sapiens) (P13051 whole entry): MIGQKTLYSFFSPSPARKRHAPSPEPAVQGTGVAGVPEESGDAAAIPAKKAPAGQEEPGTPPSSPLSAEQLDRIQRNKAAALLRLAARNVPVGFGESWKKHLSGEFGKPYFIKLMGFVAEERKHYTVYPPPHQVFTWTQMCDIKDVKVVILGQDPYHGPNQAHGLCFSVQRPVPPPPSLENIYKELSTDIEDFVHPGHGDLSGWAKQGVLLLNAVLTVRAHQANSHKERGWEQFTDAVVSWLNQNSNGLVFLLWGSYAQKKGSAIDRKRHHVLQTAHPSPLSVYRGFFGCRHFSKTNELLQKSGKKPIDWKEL
Description: Inhibition of UNG by quantifying inhibition of UNG-mediated cleavage and dissociation of quenched duplex DNA oligonucleotides, measured as fluorescence at 594 nm. To generate a functional strand incision and increase turn-over this assay is coupled to APE1.

[8] = target: T3, Adenine DNA glycosylase (Homo sapiens) (UniProt Q9UIF7); details: Hit No;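 also: human MUTYH activity read as 594 nm fluorescence from cleavage and release of a quenched DNA duplex, coupled with APE1 for strand incision, lower signal meaning inhibition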
T3 sequence (whole entry): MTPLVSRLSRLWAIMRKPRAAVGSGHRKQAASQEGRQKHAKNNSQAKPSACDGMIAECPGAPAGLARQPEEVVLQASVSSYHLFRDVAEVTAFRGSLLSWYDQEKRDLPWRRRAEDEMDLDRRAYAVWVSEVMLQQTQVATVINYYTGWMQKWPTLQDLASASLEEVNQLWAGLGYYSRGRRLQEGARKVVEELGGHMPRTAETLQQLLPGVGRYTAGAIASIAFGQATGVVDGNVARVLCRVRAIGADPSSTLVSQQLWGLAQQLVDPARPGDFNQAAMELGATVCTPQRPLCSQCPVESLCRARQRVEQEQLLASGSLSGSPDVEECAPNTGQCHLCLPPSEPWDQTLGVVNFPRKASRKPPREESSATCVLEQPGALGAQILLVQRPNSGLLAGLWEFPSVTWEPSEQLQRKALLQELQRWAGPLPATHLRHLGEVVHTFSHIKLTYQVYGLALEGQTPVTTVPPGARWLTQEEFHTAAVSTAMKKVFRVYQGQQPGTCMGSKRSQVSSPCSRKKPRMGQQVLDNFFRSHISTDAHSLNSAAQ
Description: Inhibition of MUTYH by quantifying inhibition of MUTYH-mediated cleavage and dissociation of quenched duplex DNA oligonucleotides, measured as fluorescence at 594 nm. To generate a functional strand incision and increase turn-over this assay is coupled to APE1.

[9] = target: Methyl-CpG-binding domain protein 4 (Homo sapiens) (UniProt O95243); details: Hit No;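 also: MBD4 activity read as fluorescence at 594 nm from cleavage and release of a quenched duplex DNA oligonucleotide, with APE1 coupled to incise the strand and raise turnover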
Sequence of Methyl-CpG-binding domain protein 4 (Homo sapiens) (O95243 whole entry, the tested form may be a part): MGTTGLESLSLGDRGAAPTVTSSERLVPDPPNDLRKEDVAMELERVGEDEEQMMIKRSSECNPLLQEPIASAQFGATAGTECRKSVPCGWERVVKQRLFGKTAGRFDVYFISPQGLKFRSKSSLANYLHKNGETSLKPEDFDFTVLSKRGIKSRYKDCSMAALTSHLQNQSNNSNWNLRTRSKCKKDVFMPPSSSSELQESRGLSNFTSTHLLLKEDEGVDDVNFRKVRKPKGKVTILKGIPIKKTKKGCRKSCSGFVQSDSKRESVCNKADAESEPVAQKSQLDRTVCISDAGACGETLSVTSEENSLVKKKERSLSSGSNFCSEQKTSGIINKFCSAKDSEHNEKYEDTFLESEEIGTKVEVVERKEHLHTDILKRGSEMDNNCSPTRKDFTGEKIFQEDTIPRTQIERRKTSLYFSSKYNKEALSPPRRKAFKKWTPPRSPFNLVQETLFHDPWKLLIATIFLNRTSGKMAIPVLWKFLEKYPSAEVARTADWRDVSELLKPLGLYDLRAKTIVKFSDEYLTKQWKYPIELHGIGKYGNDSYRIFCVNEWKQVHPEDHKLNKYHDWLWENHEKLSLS
Description: Inhibition of MBD4 by quantifying inhibition of MBD4-mediated cleavage and dissociation of quenched duplex DNA oligonucleotides, measured as fluorescence at 594 nm. To generate a functional strand incision and increase turn-over this assay is coupled to APE1.

[10] = target: T4, Endonuclease III-like protein 1 (Homo sapiens) (UniProt P78549); details: Hit No;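 also: enzyme assay tracking NTHL1 cutting and release of a quenched double-stranded DNA oligo substrate, read as fluorescence at 594 nm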
T4 sequence (whole entry): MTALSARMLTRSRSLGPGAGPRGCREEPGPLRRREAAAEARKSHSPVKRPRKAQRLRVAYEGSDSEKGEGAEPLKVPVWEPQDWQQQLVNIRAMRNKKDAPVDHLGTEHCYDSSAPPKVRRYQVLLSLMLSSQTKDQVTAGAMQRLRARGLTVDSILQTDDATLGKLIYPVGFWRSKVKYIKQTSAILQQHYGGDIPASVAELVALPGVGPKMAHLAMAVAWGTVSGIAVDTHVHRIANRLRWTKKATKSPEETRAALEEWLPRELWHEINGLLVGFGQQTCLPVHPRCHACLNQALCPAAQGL
Description: Inhibition of NTHL1 by quantifying inhibition of NTHL1-mediated cleavage and dissociation of quenched duplex DNA oligonucleotides, measured as fluorescence at 594 nm.

Sequence of Endonuclease 8-like 1 (Homo sapiens) (Q96FI4 whole entry): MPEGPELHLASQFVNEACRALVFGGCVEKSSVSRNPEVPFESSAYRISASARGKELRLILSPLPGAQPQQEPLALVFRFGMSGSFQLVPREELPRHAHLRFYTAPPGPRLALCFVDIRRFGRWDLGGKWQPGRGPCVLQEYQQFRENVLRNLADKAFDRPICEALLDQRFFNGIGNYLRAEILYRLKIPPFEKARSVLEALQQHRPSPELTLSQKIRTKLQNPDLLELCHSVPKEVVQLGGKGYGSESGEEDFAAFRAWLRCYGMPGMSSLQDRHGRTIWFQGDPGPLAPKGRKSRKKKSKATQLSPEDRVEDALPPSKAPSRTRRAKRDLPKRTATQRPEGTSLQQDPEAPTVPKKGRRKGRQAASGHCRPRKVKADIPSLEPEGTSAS

SMILES	inhibition [1] [%]	inhibition [2] [%]	inhibition ([3]; Compound Concentration 10.0 uM) [%]	inhibition ([4]; Compound Concentration 10.0 uM) [%]	inhibition [5] [%]	inhibition ([6]; Compound Concentration 10.0 uM) [%]	inhibition ([7]; Compound Concentration 10.0 uM) [%]	inhibition ([8]; Compound Concentration 10.0 uM) [%]	inhibition ([9]; Compound Concentration 10.0 uM) [%]	inhibition ([10]; Compound Concentration 10.0 uM) [%]	inhibition ([6]; Compound Concentration 1.0 uM) [%]	inhibition ([8]; Compound Concentration 1.0 uM) [%]	inhibition ([9]; Compound Concentration 1.0 uM) [%]	inhibition ([3]; Compound Concentration 1.0 uM) [%]	inhibition ([10]; Compound Concentration 1.0 uM) [%]	inhibition ([4]; Compound Concentration 1.0 uM) [%]	inhibition ([7]; Compound Concentration 1.0 uM) [%]
COC(=O)[C@H]1[C@H]2C[C@H]3c4[nH]c5ccccc5c4CCN3C[C@H]2CC[C@@H]1O	2.02	9.75	-6.57	5.99	14.5	–	–	–	–	–	–	–	–	–	–	–	–
O=c1ccn([C@@H]2O[C@H](COP(=O)(O)OP(=O)(O)OP(=O)(O)O)[C@@H](O)[C@H]2O)c(=O)[nH]1	-1.39	-9.97	-2.46	-4.53	-2.4	–	–	–	–	–	–	–	–	–	–	–	–
CCOc1ccc(Cc2nc3cc(C(=O)N(CC)CC)ccc3n2CC2CCCCC2)cc1	2.91	4.01	9.81	2.76	-2.6	2.19	-9.77	–	–	–	–	–	–	–	–	–	–
CSc1ccccc1N1CCN(CCCCCC(=O)NC2CCCc3ccccc32)CC1 (centres undefined)	7.57	–	-6.45	1.58	6.14	-2.78	-4.03	–	–	–	–	–	–	–	–	–	–
CN1CCCC(n2nc(Cc3ccc(Cl)cc3)c3ccccc3c2=O)CC1 (centres undefined)	-7.17	0.515	-0.805	14.5	-9.23	1.52	-8.14	–	–	–	–	–	–	–	–	–	–
Cn1cc(C(=O)OCC2CCN(CCNS(C)(=O)=O)CC2)c2ccccc21	1.28	2.51	–	-0.888	11.2	–	–	–	–	–	–	–	–	–	–	–	–
COc1ccncc1C(=O)NC(=O)Nc1ccc(-c2ccccc2)c(C(F)(F)F)c1	–	-8.22	-8.25	-6.05	-3.95	–	–	–	–	–	–	–	–	–	–	–	–
Cc1csc2c(N[C@@H](C)CN3CCN(S(=O)(=O)c4ccc(Cl)c(Cl)c4)CC3)ncnc12	0.834	-5.22	-1.28	16.4	-1.59	-6.62	–	–	–	–	–	–	–	–	–	–	–
CC(C)Oc1ccc(Cc2ccc(NC3=NCCN3)cc2)cc1	0.454	-6.46	–	0.0736	-3.29	-1.14	-3.75	–	–	–	–	–	–	–	–	–	–
COc1cc(-c2cn[nH]c2)ccc1C(=O)Nc1ccc2c(c1)CCNCC2	-5.41	3.2	2.14	37.4	–	20.2	2.84	-0.48	13.6	-8.28	–	–	–	–	–	–	–
N#Cc1cc(F)cc(-c2nc(-c3ccc(F)cn3)no2)c1	-4.29	-9.52	-9.37	2.89	–	-0.692	-3.92	-0.521	0.258	-9.34	–	–	–	–	–	–	–
CC(=O)Nc1nc(CN2CCC[C@H](Cc3cc(C)nc(C)c3)C2)cs1	1.68	3.85	13.6	45.8	–	19	7.98	17.8	81.4	9.23	–	–	–	–	–	–	–
CC[C@H](Nc1c(C#N)c(-c2ccc(-c3cccc(C)c3F)cc2)nc2cnccc12)C(=O)O	1.86	-0.764	43.2	51.7	–	12	6.04	34.2	59.4	5.22	–	–	–	–	–	–	–
C=C(C)[C@H]1CN[C@H](C(=O)O)[C@H]1CC(=O)O	-4.88	-3.66	-6.14	-2.38	–	-0.636	-5.09	8.87	2.41	-1.08	–	–	–	–	–	–	–
CC(C)c1cc(-c2ccc(F)c3ccccc23)nc(N)n1	5.58	7.25	2.18	-7.89	-4.83	-9.82	–	–	–	–	–	–	–	–	–	–	–
Cc1cc(OC2CCS(=O)(=O)CC2)cc(C)c1-c1cccc(COc2ccc(C(=O)O)c(F)c2)c1	-1.96	-1.51	31.5	100	–	23.6	6.33	8.53	67.4	-5.23	–	–	–	–	–	–	–
CC(C)NC(=O)N1CC[C@H](NC2=Nc3cc(F)ccc3N(CC(F)F)c3ccc(Cl)cc32)C1	-1.58	-0.0337	-3.5	62.4	–	26.7	8.59	13.1	0.374	4.27	–	–	–	–	–	–	–
Cc1cccc(-c2cnc3occ(-c4ccc(C(=O)O)c(C5CCCC5)c4)c3c2)c1	6.08	-2.46	66.5	36.3	–	18.9	-0.203	15.7	33	4.27	–	–	–	–	–	–	–
CN1CCN(C(=O)C(C)(C)c2ccc(C(=O)Nc3cn4cc(-c5ccncc5)ccc4n3)cc2)CC1	1.07	-4.06	0.918	60.5	–	18.7	6.5	32.7	60.8	9.89	14.8	33.1	-4.56	-1.57	4.27	36.3	0.265
